Test results published in a melting point compilation (Tetko et al.).

melting point | Compound
115 °C | Cc1nc([N+](=O)[O-])cn1CCC#N
56.5 °C | COC(=O)C1(S(=O)(=O)c2ccccc2)CCCC1
105 °C | COC1CC2C3(C)CCCC2(COC3=O)C2C(OC(C)=O)CC3C(C)C(=O)C12C3O (stereo not drawn)
198 to 200 °C | Cc1nc(/C(C#N)=C\c2ccccc2Cl)sc1/N=N/c1ccc(Cl)cc1
310 to 312 °C | CC(=O)c1nn(-c2ccccc2)c2cc3c(cc12)c(C(C)=O)nn3-c1ccccc1
222 °C | CC(=O)C1(O)CCC2C3CC(C)C4=CC(=O)CCC4(C)C3CCC21C (stereo not drawn)
140 to 144 °C | ON=C(c1ccccc1)c1ccccc1
174 °C | CC(C)(C)N(NC(=O)c1ccccc1)C(=O)c1cccc(C#N)c1
-8.5 °C | CCSCC(=O)O
176 °C | CC(=O)Nc1cc(CCNC(=O)c2ccccc2)ccc1CCNC(=O)c1ccccc1
146 °C | NC(=S)Nc1ccccc1Cl
-75 °C | CCOCCC(=O)OCC
238 °C | CCOC(=O)/C(C#N)=C/c1ccc(-c2ccc([N+](=O)[O-])cc2)o1
172 °C | CCOC(=O)C1=C(c2ccccc2)NC(=O)NC1c1ccccc1 (stereo not drawn)
83 to 85 °C | CC(=O)/C(=N\Nc1cc(Cl)ccc1Cl)C(=O)C(F)(F)F
193 to 196 °C | CC(=O)N1CCSC1C(=O)NN (stereo not drawn)
280 °C | Cc1ccc(C=C2C(=O)NN=C2c2c(O)c3ccccc3n(C)c2=O)cc1
88 to 90 °C | Cc1nc(-c2ccc(S(=O)(=O)Cl)s2)cs1
-18.5 °C | C[Si](C)(C)C=C[Si](C)(C)C
188 °C | CC1=CC(=O)CC(=O)O1
56 °C | c1ccc(-c2ccncn2)cc1
213 to 214 °C | O=C1OC(=O)C2=C1SCCS2

melting point | Compound
164 °C | COc1ccc(C(N)=O)cc1OC
197 to 200 °C | c1nnc(SCCSc2nnc[nH]2)[nH]1
138 to 139 °C | NCc1cccc2c(Br)cccc12
140 to 142 °C | c1ccc(-c2csc3nc4ccccc4n23)cc1
127 °C | CCSC(SCC)C(O)C(O)C(O)CO (stereo not drawn)
217 to 218 °C | COc1ccc(C=CC(=O)O)c(Cl)c1OC
18 °C | CCCCCCCCCCCCCCCCCC(C)C
-41 °C | CCC(C)CC(=O)O (racemic)
189 °C | Cc1cc(-c2ccccc2)n(N)c(=O)c1C#N
295 °C | CC(C)(C)CC(=O)OCC(=O)C12OC(C)(C)OC1CC1C3CCC4=CC(=O)C=CC4(C)C3(F)C(O)CC12C (stereo not drawn)
56.3 °C | O=C1CCCC(=O)O1
335 °C | COc1ccc([N+](=O)[O-])cc1NN=C1C(=O)C(C(=O)Nc2cccc([N+](=O)[O-])c2)=Cc2ccccc21
111 to 116 °C | CC(=O)Oc1ccc(N=C2C=CC(=O)C=C2)cc1
194 °C | O=C(O)c1cc(Cl)c(Cl)c(Cl)c1Cl
92 to 97 °C | Fc1ccc(C(Br)Br)c(C(Br)Br)c1
36 to 41 °C | Fc1cc(I)ccc1Br
113 °C | O=C(Cl)c1ccc(-c2ccccc2)cc1
36 °C | Cl[Si](Cl)(Cl)CCC12CC3CC(CC(C3)C1)C2
71 to 73 °C | N#Cc1ccc(F)cc1[N+](=O)[O-]
162 to 163 °C | Fc1nc(Cl)c2[nH]cnc2n1
85 to 86 °C | COc1ccc(OC)c2ccccc12
296 °C | O=C(Nc1cccc2ccccc12)Nc1cccc2ccccc12

melting point | Compound
138 °C | c1ccc(-c2nc3ccccc3nc2-c2cccc3ccccc23)cc1
62 to 64 °C | Nc1ccc(OC(F)(F)F)cc1[N+](=O)[O-]
160 to 163 °C | COC(=O)c1ccc(-c2nc(C)no2)cc1
66 to 69 °C | N#CCc1cccc(Cl)c1Cl
167 to 171 °C | CC1(C)CC(=O)C=C(C(=O)O)O1
-68.3 °C | CCCCCCCOCC
193 to 197 °C | O=C(O)c1cc(F)c(Cl)c([N+](=O)[O-])c1Cl
59 to 60 °C | CC1(C)Cc2cccc(CO)c2O1
39 to 41 °C | N#CCc1coc2ccccc12
151 to 153 °C | N#Cc1ccc(-n2ccnc2)cc1
196 °C | COc1ccc(-c2csc(/C(C#N)=N\Nc3ccc(Br)cc3)n2)cc1
83 °C | N#Cc1c(F)c(F)c(F)c(F)c1C#N
242 to 243 °C | COC(=O)CCC(C)C1CCC2C3C(=O)CC4CC(=O)CCC4(C)C3CC(=O)C12C (stereo not drawn)
299 to 300 °C | N#C/C(=C\c1cccc(O)c1)c1nc2ccccc2[nH]1
72 °C | O=C1C(CCl)(CCl)CCC1(CCl)CCl
186 °C | CC(Cc1ccc(O)c(O)c1)C(C)Cc1ccc(O)c(O)c1 (stereo not drawn)
73 °C | O=[N+]([O-])c1ccccc1/C=C/c1ccccc1
256 °C | O=C(Nc1ncc([N+](=O)[O-])s1)c1cccs1
151 °C | O=C(O)Cc1c(Cl)cccc1C(F)(F)F
292 °C | Cn1c(=O)c(C2=NNC(=O)C2=Cc2ccccn2)c(O)c2ccccc21
161 °C | NC(=O)c1ccc(F)cc1F
190 to 192 °C | O=S1(=O)CC(O)C(Br)C1 (stereo not drawn)

melting point | Compound
90 to 90.5 °C | CC1=CC2OC1C(Cl)(Cl)C(=O)C2(Cl)Cl (stereo not drawn)
91 °C | CC(=O)C(C(C)=O)=C1SCCS1
218 to 220 °C | Clc1ccc(Nc2ncnc3c2cnn3-c2ccccc2)cc1
115 to 116 °C | O=Cc1cccc(Oc2ccccn2)c1
97 to 99 °C | NCCSc1cc(C(F)(F)F)nc2ccccc12
115 to 118 °C | NC(=O)c1ccccc1N1CCCCC1
96.5 °C | NN=C(c1ccccc1)c1ccccc1
145 to 148 °C | CC(C)(C)OC(=O)NC(Cc1cccc2ccccc12)C(=O)O (stereo not drawn)
299 °C | NC(Cc1c[nH]c2ccc(O)cc12)C(=O)O (racemic)
152 to 154 °C | COC(=O)c1scc(S(=O)(=O)Cc2ccco2)c1N
-19 °C | CC(Br)C(Br)CBr (stereo not drawn)
23 °C | C=CCCCCCCCCCCCCCCCCC
39 °C | Cc1c(N)cccc1C(F)(F)F
104 °C | COc1ccc(CCC(=O)O)cc1
30 °C | Nc1c(F)cc(F)cc1Cl
-30 °C | CC(=O)Oc1ccccc1
35 °C | O=[N+]([O-])c1ccc(F)cc1Cl
90 to 92 °C | CC(C)(C)OC(=O)N=NC(=O)OC(C)(C)C
248 to 254 °C | O=C(O)c1ccc2cc[nH]c2c1

Compound | melting point
CCC1(c2ccccc2)C(=O)NC(=O)N(C)C1=O (stereo not drawn) | 176 °C
O=C(CCl)Nc1ccc(Cl)cc1 | 168 to 170 °C
CCC1(C)CC(=O)NC(=O)C1 | 126 °C
CC12CCC3C(CCC4(C)CC(=O)CCC34C)C1CCC2=O (stereo not drawn) | 148 °C
COP(=O)(OC)OC=C(Cl)Cl | -60 °C
Cc1nc2ccc3ccccc3c2o1 | 37 °C
CCC1C(C)=NN=C(c2ccc(OC)c(OC)c2)c2cc(OC)c(OC)cc21 (stereo not drawn) | 156 °C
CCC(Br)(CC)C(=O)NC(N)=O | 118 °C
